Reference: patent US9199941B2, “Pyrazole indanyl carboxamides” (BAYER CROPSCIENCE AG, priority 2012, dated 2015)
Several values for one entry are separate records, joined by “and”; a condition that tells them apart may be missing. Equal values may be shown once. Read-outs that look alike come from different tables or passages of the source.

Assays:
[1] = log P by HPLC on reversed phase columns (EEC directive 79/831 Annex V.A8); type: physicochemical
Uromyces appendiculatus = test: In vivo preventive test on Uromyces appendiculatus (bean rust); conditions: preventive spray, bean plants, grading 11 days after contamination
Protocol: Bean plants (“Saxa” variety), sown in starter cups on a 50/50 peat soil-pozzolana substrate and grown at 24° C., are treated at the 2-leaf stage (9 cm height) by spraying with the active ingredient prepared as described above. Plants, used as controls, are treated with the mixture of acetone/tween/DMSO/water not containing the active material. After 24 hours, the plants are contaminated by spraying the leaves with an aqueous suspension of Uromyces appendiculatus spores (150 000 spores per ml). […] Grading (% of efficacy) is carried out 11 days after the contamination, in comparison with the control plants.

Puccinia recondita = test: In vivo preventive test on Puccinia recondita (brown rust on wheat); conditions: preventive spray, wheat plants, grading 12 days after contamination
Protocol: Plants, used as controls, are treated with the mixture of acetone/tween/DMSO/water not containing the active material. After 24 hours, the plants are contaminated by spraying the leaves with an aqueous suspension of Puccinia […] spores (100 000 spores per ml). […] Grading (% of efficacy) is carried out 12 days after the contamination, in comparison with the control plants.

Septoria tritici = test: In vivo preventive test on Septoria tritici (leaf spot on wheat); conditions: 500 ppm, preventive spray, wheat plants, grading 24 days after contamination
Protocol: Wheat plants (“Scipion” variety), sown in starter cups on a 50/50 peat soil-pozzolana substrate and grown at 22° C., are treated at the 1-leaf stage (10 cm height) by spraying with the active ingredient prepared as described above. Plants, used as controls, are treated with the mixture of acetone/tween/DMSO/water not containing the active material. After 24 hours, the plants are contaminated by spraying the leaves with an aqueous suspension of cryopreserved Septoria tritici spores (500 000 spores per ml). […] Grading (% of efficacy) is carried out 24 days after the contamination, in comparison with the control plants.

Sphaerotheca fuliginea = test: In vivo preventive test on Sphaerotheca fuliginea (powdery mildew on cucurbits); conditions: preventive spray, gherkin plants, grading 12 days after contamination
Protocol: Gherkin plants (“Vert petit de Paris” variety), sown in starter cups on a 50/50 peat soil-pozzolana substrate and grown at 24° C., are treated at the Z11 cotyledon stage by spraying with the active ingredient prepared as described above. Plants, used as controls, are treated with the mixture of acetone/tween/DMSO/water not containing the active material. After 24 hours, the plants are contaminated by spraying the cotyledons with an aqueous suspension of Sphaerotheca fuliginea spores (100 000 spores per ml). The spores are collected from infected plants. The contaminated gherkin plants are incubated at about 20° C. and at 70-80% relative humidity. Grading (% of efficacy) is carried out 12 days after the contamination, in comparison with the control plants.

[2] = Table 2, amines of formula (III-a), method [a]: LC-MS at pH 2.7, 0.1% formic acid in water / acetonitrile
[3] = Table 1, compounds of formula (I), method [a]: LC-MS at pH 2.7, 0.1% formic acid in water / acetonitrile

Row | Compound | logP [1, 2] | Eff. % (Uromyces appendiculatus; 500 ppm) | logP [1, 3] | also measured
1 | Nc1cccc2c1CCC21CC1 [Example III-a-2] | 1.37[a] |  |  | 
2 | Cc1nn(C)c(C)c1C(=O)Nc1cccc2c1C(C)CC2C(C)(C)C (centres unmarked) [Example 16] |  | 100% | 4.13[a] | Eff. % (Puccinia recondita; 500 ppm): 98%
3 | CCON=C1CCc2c(N)cccc21.Cl [III-a-10] | 1.75[a] |  |  | 
4 | CCCON=C1CCc2c(N)cccc21.Cl [III-a-7] | 2.26[a] |  |  | 
5 | CON=C1CCc2c(NC(=O)c3cn(C)nc3C(F)F)cccc21 [Example 23] |  |  | 2.59[a] | Eff. % (Puccinia recondita; 500 ppm): 94%
6 | CON=C1CC(C)c2c(NC(=O)c3cn(C)nc3C(F)F)cccc21 (centres unmarked) [Example 31] |  | 99% | 2.45[a] | Eff. % (Septoria tritici): 79%
7 | Cc1nn(C)c(C)c1C(=S)Nc1cccc2c1C(C)CC2CC(C)C (centres unmarked) [Example 40] |  | 100% | 4.25[a] | Eff. % (Puccinia recondita; 500 ppm): 98%
8 | CC(C)CC1CCc2c(NC(=O)c3cn(C)nc3C(F)F)cccc21 (centres unmarked) [Example 32] |  | 100% | 4.11[a] | Eff. % (Sphaerotheca fuliginea; 500 ppm): 98%; Eff. % (Puccinia recondita; 500 ppm): 98%; Eff. % (Septoria tritici): 71%
9 | Cc1nn(C)c(O)c1C(=O)Nc1cccc2c1CCC21CC1 [Example 26] |  |  | 2.04[a] | Eff. % (Septoria tritici): 71%
10 | Cc1c(C(=O)Nc2cccc3c2C(C)CC32CC2)cnn1C (centres unmarked) [Example 48] |  |  | 2.55[a] | Eff. % (Uromyces appendiculatus; 100 ppm): 100%; Eff. % (Sphaerotheca fuliginea; 100 ppm): 81%; Eff. % (Puccinia recondita; 100 ppm): 98%
11 | CC1CC2(CCCC2)c2cccc(NC(=O)c3cn(C)nc3C(F)F)c21 (centres unmarked) [Example 49] |  |  | 4.31[a] | Eff. % (Puccinia recondita; 100 ppm): 89%
12 | CC1CC2(CC2)c2cccc(N)c21 (centres unmarked) [Example III-a-16, 3′-methyl-2′,3′-dihydrospiro[cyclopropane-1,1′-inden]-4′-amine] |  |  |  | chromatographic logP ([1]; reversed phase HPLC columns, Table 2, amines of formula (III-a), method [a]: LC-MS at pH 2.7, 0.1% formic acid in water / acetonitrile, read-out: logP): 1.93
13 | Cc1nn(C)c(C)c1C(=S)Nc1cccc2c1C(C)CC21CC1 (centres unmarked) [Example 39, 1,3,5-trimethyl-N-(3′-methyl-2′,3′-dihydrospiro[cyclopropane-1,1′-inden]-4′-yl)-1H-pyrazole-4-carbothioamide] |  | 100% |  | Eff. % (Puccinia recondita; 500 ppm): 89%; chromatographic logP ([1]; pH 2.7): 3.06
14 | Cc1nn(C)c(C)c1C(=O)Nc1cccc2c1C(C)CC2CC(C)C (centres unmarked) [Example 14] |  | 99% | 3.87[a] | Eff. % (Puccinia recondita; 500 ppm): 98%
15 | Cc1nn(C)c(C)c1C(=O)Nc1cccc2c1CCC21CC1 [Example 13] |  | 100% | 2.57[a] | Eff. % (Puccinia recondita; 500 ppm): 89%
16 | CC(C)(C)C1CCc2c(N)cccc21 (centres unmarked) [Example III-a-21] | 2.4[a] |  |  | 
17 | Cn1cc(C(=O)Nc2cccc3c2CCC3O)c(C(F)F)n1 (centres unmarked) [Example 37] |  |  | 1.61[a] | 
18 | CC1CC2(CC2)c2cccc(NC(=O)c3c(C4CC4)nn(C)c3Cl)c21 (centres unmarked) [Example 45] |  |  | 4.04[a] | 
19 | CC1CC2(CC2(Cl)Cl)c2cccc(N)c21 (mixture of isomers) [Example III-a-1] | 3.04 and 2.94 |  |  | 
20 | CC1CC(C(C)C)c2cccc(N)c21 (centres unmarked) [Example III-a-12] | 2.86[a] |  |  | 
21 | Cn1cc(C(=O)Nc2cccc3c2C(C)(C)CC3)c(C(F)F)n1 [Example 36] |  |  | 2.8[a] | 
22 | CC1CC(C(C)C)c2cccc(N)c21 (centres unmarked) [Example III-a-11] | 2.73[a] |  |  | 
23 | CC(C)c1nn(C)cc1C(=O)Nc1cccc2c1C(C)CC21CC1 (centres unmarked) [Example 56] |  |  | 3.29[a] | 
24 | CC1CC2(CC2(Cl)Cl)c2cccc(NC(=O)c3cn(C)nc3C(F)F)c21 (centres unmarked) [Example 4] |  | 100% | 3.5[a] | Eff. % (Sphaerotheca fuliginea; 500 ppm): 100%; Eff. % (Puccinia recondita; 500 ppm): 100%; Eff. % (Septoria tritici): 100%

Row | Compound | logP [1, 2] | Eff. % (Uromyces appendiculatus; 500 ppm) | logP [1, 3] | also measured
25 | Cc1nn(C)c(F)c1C(=O)Nc1cccc2c1CCC21CC1 [Example 15] |  | 100% |  | Eff. % (Puccinia recondita; 500 ppm): 94%
26 | CC1CCc2c(NC(=O)c3cn(C)nc3C(F)F)cccc21 (centres unmarked) [Example 50] |  |  | 3.01[a] | Eff. % (Puccinia recondita; 100 ppm): 78%
27 | CCON=C1CC(C)c2c(N)cccc21.Cl (centres unmarked) [Example III-a-19] | 2.26[a] |  |  | 
28 | CC1CC(CC(C)(C)C)c2cccc(N)c21 (centres unmarked) [Example III-a-22] | 3.83[a] |  |  | 
29 | Cc1nn(C)c(C)c1C(=O)Nc1cccc2c1C(C)CC21CC1 (centres unmarked) [Example 22, 1,3,5-trimethyl-N-(3′-methyl-2′,3′-dihydrospiro[cyclopropane-1,1′-inden]-4′-yl)-1H-pyrazole-4-carboxamide] |  | 100% |  | Eff. % (Puccinia recondita; 500 ppm): 81%; chromatographic logP ([1]; pH 2.7): 2.7
30 | CCc1nn(C)cc1C(=O)Nc1cccc2c1C(C)CC21CC1 (centres unmarked) [Example 51] |  |  | 2.99[a] | 
31 | Cc1nn(C)c(F)c1C(=O)Nc1cccc2c1C(C)CC2CC(C)(C)C (centres unmarked) [Example 35] |  | 100% | 4.61[a] | Eff. % (Sphaerotheca fuliginea; 500 ppm): 100%; Eff. % (Puccinia recondita; 500 ppm): 98%
32 | CC(C)CC1CCc2c(N)cccc21 (centres unmarked) [Example III-a-14] | 2.64[a] |  |  | 
33 | CCCON=C1CC(C)c2c(N)cccc21.Cl (centres unmarked) [Example III-a-18] | 2.78[a] |  |  | 
34 | CC1CC(C)c2c(N)cccc21 (centres unmarked) [III-a-15] | 1.76[a] |  |  | 
35 | Cc1nn(C)c(Cl)c1C(=O)Nc1cccc2c1C(C)CC21CC1 (centres unmarked) [Example 47] |  |  | 3.44[a] | Eff. % (Uromyces appendiculatus; 100 ppm): 100%; Eff. % (Puccinia recondita; 100 ppm): 95%
36 | CC(C)CC1CC(C)c2c(N)cccc21 (centres unmarked) [Example III-a-23] | 3.42[a] |  |  | 
37 | CON=C1CCc2c(N)cccc21.Cl [III-a-9] | 1.26[a] |  |  | 
38 | CCC1(C)CCc2c(N)cccc21 (centres unmarked) [Example III-a-17] | 1.88[a] |  |  | 
39 | Cc1nn(C)c(F)c1C(=S)Nc1cccc2c1C(C)CC2CC(C)(C)C (centres unmarked) [Example 43] |  | 100% | 4.87[a] | Eff. % (Sphaerotheca fuliginea; 500 ppm): 100%; Eff. % (Puccinia recondita; 500 ppm): 98%
40 | CC(C)C1CCc2c(NC(=O)c3cn(C)nc3C(F)F)cccc21 (centres unmarked) [Example 2] |  | 100% | 3.6[a] | Eff. % (Sphaerotheca fuliginea; 500 ppm): 94%; Eff. % (Puccinia recondita; 500 ppm): 98%
41 | CCCCON=C1CCc2c(N)cccc21.Cl [III-a-8] | 2.86[a] |  |  | 
42 | CCc1c(C(=O)Nc2cccc3c2C(C)CC32CC2)cnn1C (centres unmarked) [Example 54] |  |  | 2.99[a] | 
43 | Cn1cc(C(=O)Nc2cccc3c2CCC32CC2(Cl)Cl)c(C(F)F)n1 (centres unmarked) [Example 5] |  | 100% | 3.33[a] | Eff. % (Sphaerotheca fuliginea; 500 ppm): 100%; Eff. % (Septoria tritici): 71%
44 | CCCCON=C1CCc2c(NC(=O)c3cn(C)nc3C(F)F)cccc21 [Example 21] |  |  | 3.59[a] | Eff. % (Septoria tritici): 70%
45 | CON=C1CC(C)c2c(N)cccc21.Cl (centres unmarked) [III-a-20] | 1.76[a] |  |  | 
46 | CC1CC2(CC2)c2cccc(NC(=O)c3cn(C)nc3C(F)(F)F)c21 (centres unmarked) [Example 10] |  | 99% | 3.35[a] | Eff. % (Puccinia recondita; 500 ppm): 100%
47 | CC1CC2(CC2)c2cccc(NC(=O)c3c(C(F)(F)F)nn(C)c3F)c21 (centres unmarked) [Example 55] |  |  | 3.72[a] | Eff. % (Puccinia recondita; 100 ppm): 85%
